Tests used:
[1] = tested on: femur, tibia and lumbar vertebra of rat offspring; assay: Micro-CT of trabecular and cortical bone architecture in rat offspring after maternal diet supplementation; format: in vivo, Sprague-Dawley rats
Description: Fifty 10-week-old pregnant Sprague-Dawley rats at the eleventh day of gestation (Charles Rivers Laboratories, Orleans Cedex, France) are housed under standardized environmental conditions (22° C., relative humidity of 50%, artificial lighting on for 12 hours/day) and are given free access to deionized water during the test period. The rats are randomly divided into five groups of feeding (n=10/group): (1) Control Group (“Control”), who receives a standard purified rodent diet (SPRD); […] (3) Prebiotic group (“Prebiotic”), who receives the SPRD containing 7.5% of the total carbohydrate as inulin-type fructans (Synergy-1®, Orafti, Belgium); […] During their suckling period, the pups receive only the dam's milk. […] Sacrifices of rat pups are carried out at birth, weaning and at the end of the adolescence period. The whole bone mineral density (BMD) and bone mineral content (BMC) of the skeleton are measured at birth and at weaning by using a pDEXA densitometer (Norland Corp., Fort Atkinson, Wis., USA). In adolescent offspring, the determination of BMC and BMD are analyzed in isolated bones (femur, tibia and vertebrae). Determination of the trabecular architecture parameters (trabecular thickness, separation and number), bone length and bone volume fraction (BV/TV) is analyzed by Micro-computed tomography (micro-CT). Micro-CT analysis is carried out by the Bone & Joint Research Group (University of Southampton, UK) and cortical parameters are performed by SCANCO Medical AG (Bruttisellen, Switzerland). Micro-computed tomography (micro-CT) is a technique for the nondestructive assessment and analysis of the three-dimensional trabecular and cortical bone structural properties. Scanning with micro-CT can be achieved at resolutions as low as 5 μm, allowing for the determination of porosities and subtle modeling and remodeling events of the bone tissue. Furthermore, true three-dimensional image reconstructions permit the assessment of bone microarchitecture as a three dimensional structure, providing critical information to images collected through histomorphometry. In the present Example, femoral, tibia and vertebra cancellous bones are assessed using Metris (XTek) Benchtop 160Xi CT scanner (University of Southampton) and vertebra cortical bone is assessed using MicroCT-40 computed tomography system (Scanco Medical, Basserdorf, Switzerland). […] Micro-CT analysis also allows for the determination of various quality properties of the cortical bone. The bone fragility is influenced not only by the architecture but also by the tissue “quality”. The strength of a bone as an organ depends on the material properties of bone as a tissue. Stiffness, or the resistance of the whole bone to deformation by a load, is a key material property and requires a destructive mechanical technique if measurements are done in vivo. The non-destructive analysis of the volumetric bone mineral density of cortical bone (cortical vBMD) by micro CT has an approximately linear relationship with the stiffness of the cortical bone. Cortical thickness (C.Th) is one of the variables that helps to evaluate the modeling-derived changes provoked by growth. The cortical porosity (C.Sp) reflects the intracortical remodeling in the bone. Remodeling, that occurs in the surfaces of bone, could be enhanced if the pore size becomes larger and, therefore, with the increase of the cortical porosity. An increment on cortical porosity weakens the bone and decreases the bone strength. Results are expressed as mean±SEM, and the probability level at which the differences are considered significant is set at p<0.05. One-way ANOVA is used to evaluate differences attributable to the diet in the different markers, previously testing the homogeneity of variances by Levene's. A posteriori post hoc tests are carried out by the Dunnet test.

[2] = tested on: skeleton of rat offspring (whole body, femur, tibia, lumbar vertebra); assay: pDEXA densitometry of BMD and BMC in rat offspring after maternal diet supplementation; format: in vivo, Sprague-Dawley rats; settings: for lumbar vertebra BMC with respect to Control group / lumbar vertebra BMD with respect to Control group: adolescent offspring (90-day-old)
Description: Fifty 10-week-old pregnant Sprague-Dawley rats at the eleventh day of gestation (Charles Rivers Laboratories, Orleans Cedex, France) are housed under standardized environmental conditions (22° C., relative humidity of 50%, artificial lighting on for 12 hours/day) and are given free access to deionized water during the test period. The rats are randomly divided into five groups of feeding (n=10/group): (1) Control Group (“Control”), who receives a standard purified rodent diet (SPRD); […] (3) Prebiotic group (“Prebiotic”), who receives the SPRD containing 7.5% of the total carbohydrate as inulin-type fructans (Synergy-1®, Orafti, Belgium); […] During their suckling period, the pups receive only the dam's milk. […] Sacrifices of rat pups are carried out at birth, weaning and at the end of the adolescence period. The whole bone mineral density (BMD) and bone mineral content (BMC) of the skeleton are measured at birth and at weaning by using a pDEXA densitometer (Norland Corp., Fort Atkinson, Wis., USA). In adolescent offspring, the determination of BMC and BMD are analyzed in isolated bones (femur, tibia and vertebrae). Determination of the trabecular architecture parameters (trabecular thickness, separation and number), bone length and bone volume fraction (BV/TV) is analyzed by Micro-computed tomography (micro-CT). Micro-CT analysis is carried out by the Bone & Joint Research Group (University of Southampton, UK) and cortical parameters are performed by SCANCO Medical AG (Bruttisellen, Switzerland). DEXA scan is a technique used in the clinical practice for the analysis of bone health. Two main bone properties can be measured by this technique: Bone Mineral Content (BMC) and areal Bone Mineral Density (BMD). BMC determines the mass of mineral present in the whole body or in the selected skeletal region. BMC changes reflect the result of the metabolic “mass” balance between bone formation and bone destruction. BMC represented relative to the projected bone area refers to BMD. BMD represents the […] present in the bone region studied. […] The manufacturer's software for research in small animals calculates BMC and BMD for the isolated bone. Femur is measured from the femoral neck to the knee joint. Tibia is measured from the knee joint to the joint between tibia and calcaneus, also including fibula. […] Results are expressed as mean±SEM, and the probability level at which the differences are considered significant is set at p<0.05. One-way ANOVA is used to evaluate differences attributable to the diet in the different markers, previously testing the homogeneity of variances by Levene's. A posteriori post hoc tests are carried out by the Dunnet test.

[3] = adolescent offspring (90-day-old)

| Compound | vertebra BV/TV enhanced in comparison with Control group [1, 3] [%] | vertebra cortical porosity, effect [1, 3] | vertebra cortical vBMD, effect [1, 3] | vertebra trabecular separation respective to Control group [1, 3] | vertebra trabecular thickness enhanced in comparison with Control group [1, 3] [%] | vertebrae cortical thickness, effect [1, 3] | trabecular number of femur and tibia respective to Control group ([1]; pups at delivery) | trabecular separation of femur and tibia respective to Control group ([1]; pups at delivery) | trabecular thickness of femur and tibia respective to Control group ([1]; pups at delivery) | increase in vertebra trabecular thickness respective to Control group ([1]; pups at weaning) [%] | vertebra BV/TV ratio respective to Control group ([1]; pups at weaning) | vertebra trabecular separation respective to Control group ([1]; pups at weaning) | lumbar vertebra BMC with respect to Control group [2] | lumbar vertebra BMD with respect to Control group [2] | cortical features of the vertebra [1, 3] | vertebra BV/TV, effect versus Control group [1, 3] | vertebra trabecular thickness, effect versus Control group [1, 3] | whole body BMC relative to Control group ([2]; pups at weaning) |
| --- | --- | --- | --- | --- | --- | --- | --- | --- | --- | --- | --- | --- | --- | --- | --- | --- | --- | --- |
| O=C([O-])[O-].[Ca+2] [Calcium, calcium carbonate] | 22 | decrease | increase | significant decrease | 17 | without significantly affecting | greater | decrease in the trabecular separation, although statistical differences are not achieved | lower | ~30 | statistically different | statistically different | no differences | no differences |  |  |  |  |
| Vitamin D |  |  |  |  |  |  |  |  |  |  |  |  | no differences | no differences | does not show any improvement | No effect | No effect | lower |

Reference: US20120245123A1, “METHODS FOR IMPROVING BONE HEALTH IN INFANTS USING PREBIOTICS” (ABBOTT LABORATORIES, priority 2011, published 2012)
